5 molecules from paper PMC7355801, “Synthesis, Cyclooxygenases Inhibition Activities and Interactions with BSA of N-substituted 1H-pyrrolo[3,4-c]pyridine-1,3(2H)-diones Derivatives” (Molecules, 2020) can be followed below.

The target in experiment [1] is T1, bovine serum albumin (BSA) (Bos taurus, UniProt P02769).
T1 construct: gene ALB; mature serum albumin, 583 residues, monomer
Put plainly: intrinsic fluorescence quenching, excitation […] nm. It counts as binding. To be noted: 298 K, pH 7.4, no site marker.

In experiment [2] the target is T2, COX-1 (Ovis aries, UniProt P05979).
T2 construct: gene PTGS1; homodimer
T2 sequence (P05979 25-600): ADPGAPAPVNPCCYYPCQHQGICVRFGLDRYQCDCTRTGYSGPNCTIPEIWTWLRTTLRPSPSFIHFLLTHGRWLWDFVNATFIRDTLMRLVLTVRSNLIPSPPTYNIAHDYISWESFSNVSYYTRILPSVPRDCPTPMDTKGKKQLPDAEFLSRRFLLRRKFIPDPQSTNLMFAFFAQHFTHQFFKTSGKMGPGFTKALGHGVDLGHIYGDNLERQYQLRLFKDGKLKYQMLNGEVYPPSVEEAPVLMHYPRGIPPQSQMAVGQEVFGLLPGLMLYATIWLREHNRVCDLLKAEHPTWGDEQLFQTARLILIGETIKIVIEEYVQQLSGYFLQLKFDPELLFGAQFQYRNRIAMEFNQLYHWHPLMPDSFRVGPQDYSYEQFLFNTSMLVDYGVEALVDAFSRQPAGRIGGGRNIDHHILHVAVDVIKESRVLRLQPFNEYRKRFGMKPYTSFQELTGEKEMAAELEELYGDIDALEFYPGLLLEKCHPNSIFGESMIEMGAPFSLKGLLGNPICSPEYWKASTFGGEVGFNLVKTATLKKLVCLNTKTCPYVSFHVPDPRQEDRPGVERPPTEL
Briefly: colorimetric COX peroxidase inhibition kit, […] nm. It is filed as biochemical. The conditions noted are these: read-out: Cyclooxygenase Inhibition Assay IC50 [μM] / COX-1.

T1 sequence (P02769 25-607): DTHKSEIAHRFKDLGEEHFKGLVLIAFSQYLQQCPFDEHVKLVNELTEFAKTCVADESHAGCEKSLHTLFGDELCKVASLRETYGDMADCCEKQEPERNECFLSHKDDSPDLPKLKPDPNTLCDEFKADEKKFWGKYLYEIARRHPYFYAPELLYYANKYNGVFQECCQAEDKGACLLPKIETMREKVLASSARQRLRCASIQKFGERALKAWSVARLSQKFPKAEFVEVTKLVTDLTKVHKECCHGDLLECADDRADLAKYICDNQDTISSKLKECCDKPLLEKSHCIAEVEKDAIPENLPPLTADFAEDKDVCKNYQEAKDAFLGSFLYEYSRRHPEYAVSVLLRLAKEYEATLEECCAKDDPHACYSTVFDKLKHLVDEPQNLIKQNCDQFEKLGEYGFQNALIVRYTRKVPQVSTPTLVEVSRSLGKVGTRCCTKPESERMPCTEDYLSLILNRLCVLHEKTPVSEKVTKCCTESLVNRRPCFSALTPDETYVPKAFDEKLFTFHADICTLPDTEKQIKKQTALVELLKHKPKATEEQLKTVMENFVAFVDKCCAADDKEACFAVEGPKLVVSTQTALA

Regarding `COc1nc(C)cc2c1C(=O)N(CN1CCCC1)C2=O` [D, 4-Methoxy–N-[1-(N-pyrrolidine)-methyl]-6-methyl-1H-pyrrolo[3.4-c]pyridine-1,3(2H)-dione], the “Double log / Kb × 10^3 [dm^3.mol^-1]” value in experiment [1] is recorded as 4.82 × 10^3 dm^3·mol^−1. Besides, the IC50 in experiment [2] worked out at 76.6 µM.

For the molecule `Cc1cc2c(c(=O)n1C)C(=O)N(CN1CCN(c3cccc(C(F)(F)F)c3)CC1)C2=O` [B], the “Double log / Kb × 10^3 [dm^3.mol^-1]” value in experiment [1] is 8.32 × 10^3 dm^3·mol^−1. The IC50 in experiment [2] was 93.2 µM.

For the molecule `COc1ccccc1N1CCN(CN2C(=O)c3cc(C)n(C)c(=O)c3C2=O)CC1` [C], the “Double log / Kb × 10^3 [dm^3.mol^-1]” value in experiment [1] is listed as 11.51 × 10^3 dm^3·mol^−1. Also, in experiment [2], the IC50 amounted to 95.8 µM.

For the molecule `COc1nc(C)cc2c1C(=O)N(CCN1CCOCC1)C2=O` [E], the “Double log / Kb × 10^3 [dm^3.mol^-1]” value in experiment [1] is listed as 6.24 × 10^3 dm^3·mol^−1. In experiment [2], the IC50 stood at 99.2 µM.

On to `Cc1cc2c(c(=O)n1C)C(=O)N(CN1CCN(c3ccccc3)CC1)C2=O` [A, 5,6-dimethyl-4-oxo-2-[(4-phenyl-1-piperazinyl)methyl]-1H-pyrrolo[3.4-c]pyridine-1,3(2H)-dione], for which the “Double log / Kb × 10^3 [dm^3.mol^-1]” value in experiment [1] is given as 5.37 × 10^3 dm^3·mol^−1. In addition, in experiment [2], the IC50 is 81.6 µM.
